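Where inhibition never reached the appropriate level, the endpoint shown equals the highest concentration tested. Otherwise, values were interpolated linearly from a five-concentration, 48-hour dose response in 96-well plates. TGI: concentration producing complete growth inhibition.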
Assays:
Assay in all cases: NCI tumour cell line growth inhibition, 48 h
ACHN renal = tested on: ACHN renal
CAKI-1 renal = tested on: CAKI-1 renal
MDA-MB-231 breast = tested on: MDA-MB-231 breast
NCI-H23 lung = tested on: NCI-H23 lung
NCI/ADR-RES ovarian = tested on: NCI/ADR-RES ovarian
OVCAR-8 ovarian = tested on: OVCAR-8 ovarian
SK-OV-3 ovarian = tested on: SK-OV-3 ovarian
UACC-257 melanoma = tested on: UACC-257 melanoma
OVCAR-4 ovarian = tested on: OVCAR-4 ovarian

Compound	TGI (ACHN renal)	TGI (CAKI-1 renal)	TGI (MDA-MB-231 breast)	TGI (NCI-H23 lung)	TGI (NCI/ADR-RES ovarian)	TGI (OVCAR-8 ovarian)	TGI (SK-OV-3 ovarian)	TGI (UACC-257 melanoma)	TGI (OVCAR-4 ovarian)
O=C(/C=C/c1ccc2c(c1)OCO2)Cc1nc2ccccc2[nH]c1=O	74.3 µM	48.1 µM	41.7 µM	> 100 µM	> 100 µM	> 100 µM	33.5 µM	59.5 µM	
O=C1CS(=O)(=O)C(c2cccc(Oc3ccccc3)c2)N1c1cc(Cl)ccc1Cl (configuration not stated)	43.1 µM		38.4 µM	> 100 µM	77.8 µM	43.9 µM	48.9 µM	55.9 µM	
CC#CC(O)(C(=O)OC1CC(C)N(C)C(C)(C)C1)C1CCCC1 (configuration not stated)	> 100 µM	> 100 µM	> 100 µM	> 100 µM	93.6 µM	> 100 µM	> 100 µM	> 100 µM	
CC1(C)OC2COC3([C@@H]4OC(C)(C)O[C@@H]4CO)OC(C)(C)OC3C2O1 (some centres not stated)	> 100 µM	> 100 µM	> 100 µM	> 100 µM	> 100 µM	> 100 µM		> 100 µM	> 100 µM
COc1ccc(NC(C)c2ccncc2)cc1 (configuration not stated)	> 100 µM	> 100 µM	> 100 µM	> 100 µM	> 100 µM	> 100 µM	65 µM		> 100 µM
O=C1OC(c2ccccc2)N(C(=O)c2ccccc2)C1Cc1ccc(OCc2ccccc2)cc1 (configuration not stated)	> 100 µM		23.9 µM	> 100 µM	> 100 µM	> 100 µM	> 100 µM		
C[C@H]1OC(=O)[C@@H]2N=NN(Cc3ccccc3)[C@H]12	> 100 µM	> 100 µM	> 100 µM	> 100 µM	> 100 µM	> 100 µM	> 100 µM		> 100 µM
COc1ccc(N2C(=O)C3c4[nH]c5ccccc5c4C4CCCCCCCCCC4C3C2=O)cc1 (configuration not stated)	> 10 µM	> 10 µM	> 10 µM	> 10 µM	> 10 µM	> 10 µM	> 10 µM		> 10 µM
O=S1(=O)c2cnccc2NC(=NCc2ccccc2)N1c1ccccc1	> 100 µM	> 100 µM		> 100 µM	> 100 µM	> 100 µM	> 100 µM	> 100 µM	> 100 µM
O=[N+]([O-])c1cccc2c(N=Nc3ccc4ccccc4c3O)c(O)cc(S(=O)(=O)O)c12	> 100 µM	> 100 µM		> 100 µM	> 100 µM	> 100 µM	> 100 µM	> 100 µM	> 100 µM
COc1ccc(OC)c2sc(N3C(=O)/C(=C/c4cccc([N+](=O)[O-])c4)N=C3c3ccccc3)nc12	> 100 µM	> 100 µM	> 100 µM	> 100 µM	> 100 µM	> 100 µM	> 100 µM	> 100 µM	
CCOC(=O)c1ccc(Nc2nc3ccc(C(F)(F)F)cc3nc2C(=O)OCC)cc1	> 100 µM	> 100 µM	> 100 µM	> 100 µM	> 100 µM	> 100 µM	> 100 µM	> 100 µM	
O=[N+]([O-])/C(Cl)=C(\NCCN/C(C(Cl)=C(Cl)Cl)=C(/Cl)[N+](=O)[O-])C(Cl)=C(Cl)Cl	> 100 µM	> 100 µM	> 100 µM	> 100 µM	> 100 µM	> 100 µM	> 100 µM		
Cc1cccc(/C(Br)=C2/OC(=O)c3ccccc32)c1	> 100 µM	> 100 µM		> 100 µM		> 100 µM	> 100 µM	> 100 µM	> 100 µM
CCN(CC)CCO/N=C1\CC[C@H]2[C@@H]3CCc4cc(OC)ccc4[C@H]3CC[C@]12C	13.2 µM	2.13 µM	8.54 µM	18.6 µM	23.9 µM	7.95 µM		2.54 µM	22.4 µM
CCOP(=O)(OCC)OC1CC(n2cc(C)c(=O)n(C)c2=O)OC1CO[Si](C)(C)C(C)(C)C (configuration not stated)	> 100 µM	> 100 µM		> 100 µM	> 100 µM	> 100 µM	> 100 µM	> 100 µM	> 100 µM
COC(=O)N1N=C(c2ccccc2)C1c1ccccc1 (configuration not stated)		> 100 µM	> 100 µM	88 µM	69.2 µM	94 µM	> 100 µM	77.4 µM	> 100 µM
CC(C)C1=C(O)C2=C(C(=O)C1=O)C1(C)CCCC(C)(C)C1C(O)C2OC=O (configuration not stated)	13.2 µM	11.7 µM	22.5 µM	20.5 µM		20.1 µM	27.1 µM	21.6 µM	22.8 µM
O=C1C2=Nc3ccccc3C(O)(C(=O)O)N2c2ccccc21 (configuration not stated)	> 100 µM	> 100 µM	35.4 µM	54.3 µM	> 100 µM	> 100 µM		24.2 µM	32.4 µM
